Assay [1] relates to Ba/F3 EpoR JAK2V617F-luc clone 8 cells. Briefly: Ba/F3 EpoR JAK2V617F-luc cells-driven leukemic disease mouse model, Xenogen bioluminescence. In kind it is in vivo. To be noted: for Fractional change in Biolux: biolux last day/first day, mean; for T/C last day (%): (treated/control)·100. The method, then: A study is conducted to test the efficacy of the combination of Compound A and Compound B in Scid-beige mice injected i.v. (tail vein) with 1·10^6 Ba/F3 EpoR JAK2V617F-luc clone 8 cells.
• 80 Scid-beige female mice, 18-22 g (8 groups of 7 mice, 24 excluded at time of randomization) • Cells: Ba/F3 EpoR JAK2V617F-luc clone 8 cells. • Whole body Xenogen imaging was performed on days 4, 7, 9 and 11 after cell injection. Randomization of animals into treatment groups was based on bioluminescence (BioL) on day 4 after cell injection. • The mouse model and the protocol is described by Baffert et al., Mol. Cancer Ther; 9(7), 1945, July 2010. Animal and Cell line: • Cell line: Ba/F3EpoR JAK2V617F-luc clone 8 • Gene: JAK2V617F • Cell-Nr./Injection site: 1×10e6 cells in 200 ul/tail i.v. injection • Species: mouse • Strain: CB17/C.B-Igh-l^b/GbmsTac-Prkdc^scid-lyst^bgN7, Taconic farms (complete name Taconic) • Gender: female • Age: […] • Number: 80 mice
Ba/F3 EpoR JAK2V617F-luc cells are grown in RPMI1640 supplemented with 10% FCS, 1% Glutamine, Puromycin (1 ug/mL) and Hygromycin (100 ug/mL). Cells are splited every three days (1:50) not more than two weeks before experiment. The day prior the injection, cells are grown without any antibiotics (to avoid any potential delay in cell growth in vivo).
The day of injection the cells are harvested and resuspended in HBSS buffer (10e6 cells in 200 ul). Cells are injected in tail vein using 27G tuberculin syringe. […]
Bioluminescence are recorded using the Xenogen Camera (non invasive IVIS® Imaging system, Caliper) on day 4, day 7 and 10 post cell injection under isofluran anesthesia (3-5% vol isofluran, 0.8 L/min air flow). Animals are injected i.p. with D-luciferin (Xenogen corporation, ref XR-1001), at 150 mg/kg (10 ml/kg, Nacl). Anesthetized mice are then placed in the imaging chamber for imaging 15 minutes after the luciferin injection.
Animals are randomized on day 4 and treatment started for at least 6 days based on well being of vehicle treated animals.

Assay [2] deals with JAK2V617F bone marrow transduced cells. Briefly: Histology of bone marrow and spleen (cellularity, splenic architecture, reticulin fibrosis) in JAK2V617F bone marrow transplant model. In kind it is in vivo, mouse. The note with it: 21 days; for Bone marrow hypercellularity / Splenic architecture: Compound B 8 mg/kg, Compound A 60 mg/kg or both; for Bone marrow hypercellularity: rank Combo>Compound A=Compound B; for Splenic architecture: rank Combo>Compound A>Compound B. An excerpt:
and spleens were collected, fixed in formalin, trimmed, embedded in paraffin and sectioned at (nominally) 4 μm using a microtome. […] Briefly, the spleen was removed in total, weighed and placed on a dissection tray. The spleen was cut transverse in two halves and two equal pieces were taken from the middle parts using a scalpel. […] Baker, Medite, Switzerland). Fixative volume was at least tenfold in excess compared to tissue volume. […] After a last wash in PBS, the tissues were cut up and set with the surface of interest downwards in a universal histocassette followed by processing in a TPC 15Duo (Tissue Processing Center) for paraffinization. From each tissue paraffin block, several 3 μm thick sections were cut on a sliding or rotary microtome (Mikrom International AG, Switzerland), spread in a 45° C. water-bath, mounted on microscope slides (Polysine, VWR International, Leuven, Belgium), and air-dried in an oven at 37° C. overnight. Dry tissue section slides were taken out of the oven and placed in the slide rack of the linear stainer COT20 (Medite, Switzerland) for fully automated H&E (Haematoxylin &Eosin) staining or processed for immunohistochemistry (IHC) staining. For IHC, tissue section samples were stained with rabbit anti-phospho STAT5 antibody (clone C11C5), and rabbit anti-acetyl Histone H3 antibody (Millipore, MA, USA) coverslipped and air-dried. […] Splenic architecture was evaluated as destroyed (1+) or preserved (0). Presence of myeloid, erythroid and adipocytes cells was evaluated as 0, 1+, 2+, 3+ based on cellularity. […] Whole slide automated quantitative assessment of p-STAT5-positive and -negative cell nuclei were performed using Definiens eCognition software (eCognition version XD 1.5, Definiens AG, Germany). The results were expressed as percent of positive p-STAT5 nuclei out of total nuclei.

[3] abbreviates: Compound A 60 mg/kg po twice a day.

As for `Cc1[nH]c2ccccc2c1CCNCc1ccc(/C=C/C(=O)NO)cc1` [Compound B, N-hydroxy-3-[4-[[[2-(2-methyl-1H-indol-3-yl)-ethyl]-amino]methyl]phenyl]-2E-2-propenamide], the “Fractional change in Biolux” value is 481 in assay [1] (Compound B 4 mg/kg ip M/W/F (free-base equivalent)), 351 in assay [1] (Compound B 8 mg/kg ip M/W/F) and 204 in assay [1] (Compound B 12 mg/kg ip M/W/F). Besides, the “T/C last day (%)” value worked out at 27% in assay [1] (Compound B 4 mg/kg ip M/W/F), 20% in assay [1] (Compound B 8 mg/kg ip M/W/F) and 11% in assay [1] (Compound B 12 mg/kg ip M/W/F). In assay [2], the Bone marrow hypercellularity result was “decrease”. Moreover, the Splenic architecture entry in assay [2] is reported as “improved”.
Consider `N#CC[C@H](C1CCCC1)n1cc(-c2ncnc3[nH]ccc23)cn1` [Compound A, (R)-3-(4-(7H-pyrrolo[2,3-d]pyrimidin-4-yl)-1H-pyrazol-1-yl)-3-cyclopentylpropanenitrile], for which, in assay [1] (setting [3]), the “T/C last day (%)” value was found to be 40% and the “Fractional change in Biolux” value turned out to be 717. Also, the “Fibrosis score (reticulin staining on sternum sections)” value in assay [2] (Compound A 60 mg/kg or combination with Compound B 8 mg/kg, high variability) is recorded as “tendency to reduce”. Besides, in assay [2], the Bone marrow hypercellularity entry was “decrease” and the Splenic architecture entry is given as “improved”.
